Results as given in patent publication US12351561B2, “Crystalline (2S,4R)-5-(5'-chloro-2'-fluoro-[1,1'-biphenyl]-4-yl)-2-(ethoxymethyl)-4-(3-hydroxyisoxazole-5-carboxamido)-2-methylpentanoic acid and uses thereof” (THERAVANCE BIOPHARMA R&D IP, LLC, priority 2016, dated 2025).
Where two headings read alike, the source gives them in different places.

Experiments:
[1] = biological target: T1, NEP (Homo sapiens, UniProt P08473); test: Assay 3.1: NEP activity in human (cGMP), single-ascending dose study; format: in vivo
T1 construct: from tissue; host or cells: healthy human volunteers (in vivo)
T1 sequence (P08473 whole entry): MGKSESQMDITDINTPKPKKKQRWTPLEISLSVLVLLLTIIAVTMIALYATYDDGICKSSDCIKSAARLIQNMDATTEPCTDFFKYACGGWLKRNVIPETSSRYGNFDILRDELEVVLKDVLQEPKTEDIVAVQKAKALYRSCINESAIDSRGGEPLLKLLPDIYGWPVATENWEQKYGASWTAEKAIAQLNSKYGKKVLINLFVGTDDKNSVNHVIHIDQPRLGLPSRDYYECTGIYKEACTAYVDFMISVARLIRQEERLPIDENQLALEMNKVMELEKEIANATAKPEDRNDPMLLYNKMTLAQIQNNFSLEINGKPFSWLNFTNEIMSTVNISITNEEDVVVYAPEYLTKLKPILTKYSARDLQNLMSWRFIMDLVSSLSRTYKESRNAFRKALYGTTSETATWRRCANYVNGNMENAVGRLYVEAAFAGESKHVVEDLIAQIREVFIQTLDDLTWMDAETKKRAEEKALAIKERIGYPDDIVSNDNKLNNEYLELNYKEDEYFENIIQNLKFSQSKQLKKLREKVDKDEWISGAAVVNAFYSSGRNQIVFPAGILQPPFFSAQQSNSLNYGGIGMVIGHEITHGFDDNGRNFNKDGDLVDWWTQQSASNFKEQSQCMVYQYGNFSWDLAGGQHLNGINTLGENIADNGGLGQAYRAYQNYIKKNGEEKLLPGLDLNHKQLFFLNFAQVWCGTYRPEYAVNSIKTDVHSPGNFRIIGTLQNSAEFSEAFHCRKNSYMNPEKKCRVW
Protocol: (§1) A Phase 1 single-ascending dose (SAD) clinical trial of Compound I′ (Form I), which converts to or dissolves to provide its soluble form Compound I in the body, was conducted in order to assess neprilysin inhibition for the treatment of a range of cardiovascular and renal diseases, including, e.g., chronic kidney disease, diabetic nephropathy, acute and chronic heart failure, heart failure with reduced ejection fraction, heart failure with preserved ejection fraction, post-myocardial infarction asymptomatic left ventricular dysfunction (post-MI asymptomatic LVD), subacute heart failure and resistant and isolated systolic hypertension. Safety and tolerability, pharmacokinetic (support for QD/BID dosing and non-renal excretion), pharmacodynamic (test for target engagement biomarkers cGMP and ANP), food effect, and absolute oral bioavailability and renal elimination using a ^14C intravenous microtracer, inter alia, were tested.
(§2) The Phase 1 study was a double-blind, randomized placebo-controlled single ascending dose study in healthy male and female volunteers randomized in a 4:1 ratio. The study enrolled 56 healthy volunteers over multiple weeks for the ascending-dose portion, which included cohorts (n=10/cohort of 8 active and 2 placebo) administered single ascending doses of 50 mg, 100 mg, 200 mg, 400 mg and 600 mg. A sixth cohort (n=6) was administered i.v. microtracer and oral doses of 10 μg and 100 mg, respectively.
One goal of this study was to determine the mechanism/duration of action of Compound I after dosing in humans.

[2] = Assay 3: Phase 1 single-ascending dose study, safety and tolerability; format: in vivo, human; settings: healthy volunteers, single doses up to 600 mg
Protocol: as §1
as §2, with “A sixth cohort (n=6) was administered i.v. microtracer and oral doses of 10 μg and 100 mg, respectively.” left out

[3] = Assay 4: Phase 1 multiple-ascending dose study, renal elimination; format: in vivo; settings: human, after multiple dosing, Day 1 and Day 14, all subjects
Protocol: A Phase 1 multiple-ascending dose (MAD) clinical trial of Compound I′ (Form I) was conducted in order to further evaluate the safety, tolerability, pharmacokinetics of Compound I and its metabolite, pharmacodynamics of Compound I, food effect, absolute oral bioavailability and renal elimination of multiple ascending oral doses of Compound I′ in healthy adult and elderly subjects. As discussed below, the reported data confirms the results stemming from the SAD clinical trial.
(§3) The Phase 1 study was a double-blind, randomized placebo-controlled multiple ascending dose study in healthy male and female volunteers randomized in a 4:1 ratio. The study enrolled 50 healthy adult (19-55 years old) and elderly (65-80 years old) volunteers over multiple weeks for the ascending-dose portion, which included cohorts (n=10/cohort of 8 active and 2 placebo) administered (1) ascending doses of 50 mg, 100 mg, and 200 mg, (2) a dose of 10 mg studied in parallel with 200 mg for PK/PK, and (3) a dose of 100 mg for one elderly cohort. […] Additionally, renal elimination of Compound I was neglible after multiple dosing, e.g., <1% was observed on Day 1 and Day 14 for all subjects.

[4] = biological target: T1, NEP; test: Assay 4.1: NEP activity in human (cGMP), multiple-ascending dose study; format: in vivo; settings: healthy adult and elderly subjects, 10-200 mg once daily, Day 14, over 24 h
Protocol: as §3
Part of the MAD clinical studies was to determine the mechanism/duration of action of Compound I after dosing in humans.

[5] = Assay 1: IV/PO pharmacokinetic study in dogs; format: in vivo, male beagle dogs; settings: dog; for bioavailability / AUC(0-t): plasma; for bioavailability: po; for AUC(0-t): read-out: AUClast Mean
Protocol: Each rat, dog or monkey PK study began with formulation of the test compound. Appropriate masses of each test compound were added into a volume of vehicle (e.g. 5% sodium bicarbonate, 5% dextrose in H2O) such that the final concentration of each compound was appropriate to be dosed. Although a homogenous suspension were acceptable for oral dosing, intravenous dosing solutions were sterile-filtered (0.2 μm) prior to dosing to ensure no particulates were administered.
In the dog study, male non-naïve beagle dogs (3 per route) housed at Agilux Laboratories (Worcester, MA) and weighing between 9-14 kg received either an oral or intravenous dose. Oral doses were delivered into the stomach using a syringe and gavage tube followed by a water flush of approximately 10 mL. Oral doses were administered at a volume of 2 mL/kg. Intravenous doses were administered via a percutaneous catheter placed in sphenous vein followed by a saline flush of approximately 3 mL. Intravenous doses were administered at a volume of 0.5 mL/kg. […] Serial blood samples were harvested via direct venipuncture at 3 min, 15 min, 30 min, 1 h, 2 h, 4 h, 6 h, 8 h, 12 h, and 24 h post-dose. All samples were collected manually into microtainer tubes containing EDTA as the anticoagulant and were processed to plasma by refrigerated centrifugation.
Plasma concentrations of Compound I were determined by LC/MS/MS. Plasma study samples were vortexed and placed in a 96-well plate. The samples were extracted with 200 μL of acetonitrile with an internal standard. The extract was centrifuged for 10 minutes at 2809 RPM and 50 μL supernatant was mixed with 200 μL 0.2% formic acid in water. Samples (10-15 μL) were injected on a ThermoFisher HyPURITY™ (C18 50×2.1 mm) column with a flow rate of 0.35 mL/min. Mobile phase A consisted of water: acetonitrile: formic acid (95:5:0.1, v:v:v) and Mobile phase B consisted of methanol: acetonitrile: formic acid (50:50:0.1, v:v:v) (dog). Mobile phase A consisted of 0.2% formic acid in water and mobile phase B consisted of 0.2% formic acid in acetonitrile (rat and monkey). Pharmacokinetic parameters of Compound I were determined by non-compartmental analysis (Model 201 and Model 200 for IV and PO administration, respectively) using Phoenix WinNonlin Version 6.3 (Certara, Sunnyvale, CA) and using individual plasma concentration time profiles from 3 animals per treatment group.
Plasma clearance was determined from the intravenous arm of the study, and represents the rate at which plasma is cleared of drug. It is equal to the dose divided by the area under the plasma concentration-time curve. In addition to plasma clearance, it is also essential for an orally administered drug to reach efficacious systemic levels following oral delivery. Oral bioavailability is a measurement of plasma exposures following oral administration relative to exposures following intravenous administration.

[6] = Assay 3.2: PK profile, oral bioavailability and renal excretion in human (SAD, 14C i.v. microtracer); format: in vivo
Protocol: as §1, §2

time window of the highest cGMP levels ([1]; healthy subjects, after a single dose): 8 to 12 h | dose levels at which plasma cGMP dose response shows near maximal effect ([1]; healthy subjects, single dose): ≥ 100 mg | renal elimination [3]: < 1% | CLlast Mean ([5]; PO, 0.1 mg/kg): 47.2 mL/min/kg | bioavailability ([5]; higher doses (100-300 mg/kg), data not shown, read-out: mean bioavailability): 7 to 13% | bioavailability ([5]; male, beagle, 0.1 mg/kg, read-out: Oral Bioavailability Mean): ~17% | AUC(0-t) ([5]; male, beagle, IV, 0.1 mg/kg): 210 ng·h/mL | AUC(0-t) ([5]; male, beagle, PO, 0.1 mg/kg): 34.9 ng·h/mL | bioavailability ([6]; both sexes, in vivo, po, 100 mg, human, SAD clinical trial): ~80% | pharmacokinetic profile ([6]; healthy subjects, single doses 50-600 mg): dose-proportional | renal elimination (of total administered dose) ([6]; human, SAD clinical trial, confirmed by intravenous microtracer): < 1%
Structure (SMILES): CCOC[C@](C)(C[C@@H](Cc1ccc(-c2cc(Cl)ccc2F)cc1)NC(=O)c1cc(O)no1)C(=O)O [Compound I, (2S,4R)-5-(5′-Chloro-2′-fluoro-[1,1′-biphenyl]-4-yl)-2-(ethoxymethyl)-4-(3-hydroxyisoxazole-5-carboxamido)-2-methylpentanoic Acid]
change in mean plasma cGMP from baseline ([1]; healthy subjects, single dose 50-600 mg, over 24 hours): sustained increase in mean plasma cGMP over 24-hours | cGMP in plasma and urine ([1]; human, SAD clinical trial, over 24h): sustained elevations of cGMP over 24h in both plasma and urine | tolerability [2]: well-tolerated | change in mean plasma cGMP from baseline [4]: sustained increase in mean plasma cGMP over 24 h
